# Measurements as given in US20130281409A1, “Myelin Sheath Fatty Acids that Resolve Neuroinflammation” (priority 2012, published 2013).
# Where two headings read alike, the source gives them in different places.
# Legend:
# [1] = tested on: EAE in PLP139-151-immunized SJL/J mice; assay: EAE, lipid administered prophylactically (co-immunization with PLP139-151); format: in vivo, mouse; conditions: 6 μg/injection; s.c. with PLP139-151 on day 0, i.p. on days 4 and 7
# Description: Animal experiments were approved by, and performed in compliance with, the National Institute of Health guidelines of the Institutional Animal Care and Use Committee at Stanford University. For induction of EAE, 8- to 12-week-old female SJL/J mice (Jackson Laboratory) were immunized subcutaneously with 100 μg of PLP139-151 emulsified in CFA (Difco Laboratories). Three injections of PGPC (6 μg/mouse/injection) or vehicle (0.05% Tween-20 in PBS) were delivered on days 0, 4, and 7 after immunization with PLP139-151. On day 0, the lipid or vehicle was emulsified together with PLP139-151 in CFA and administered by subcutaneous injection. At subsequent time points, lipid or vehicle was injected intraperitoneally. EAE was assessed as previously described. To induce EAE in SJL/J mice (Jackson Mice), we immunized 8- to 12-week-old female animals subcutaneously with 100 μg of PLP139-151 emulsified in CFA (Difco Laboratories). Prophylactic administration of lipid: Three injections of PGPC or sphingomyelin (6 μg/mouse/injection) or vehicle (0.05% Tween-20 in PBS) were delivered on days 0, 4, and 7 after immunization with PLP139-151. […] Clinical disease was monitored daily using the following scoring system: 0, no disease; 1, limp tail; 2, hind limb weakness; 3, hind limb paralysis; 4, hind limb and forelimb paralysis; 5, death. […]
# [2] = tested on: EAE in PLP139-151-immunized SJL/J mice; assay: EAE, lipid or palmitic-acid treatment of established disease; format: in vivo, mouse
# Description: Animal experiments were approved by, and performed in compliance with, the National Institute of Health guidelines of the Institutional Animal Care and Use Committee at Stanford University. For induction of EAE, 8- to 12-week-old female SJL/J mice (Jackson Laboratory) were immunized subcutaneously with 100 μg of PLP139-151 emulsified in CFA (Difco Laboratories). Lipid and palmitic-acid treatment: Administration of lipid, palmitic acid, or vehicle was initiated once the PLP139-151-immunized mice developed paralysis (representing clinical EAE) and repeated every other day, for a total of ten separate injections. 100 μg of POPS, PGPC, azPC ester, azPC, palmitic acid, or vehicle (0.05% Tween-20 in PBS) was administered in 0.2 ml intravenously in the tail. EAE treatment with lipid: 100 μg of PGPC or sphingomyelin or vehicle ([…] Tween-20 in PBS) was administered in 0.2 ml intravenously in the tail. Treatment with lipid or vehicle was initiated once the PLP139-151-immunized mice developed paralysis (representing clinical EAE) and repeated 3, 6, 12, and 18 days later, for a total of five separate injections.
# [3] = tested on: NF-κB and ERK pathways, Bcl-2 family proteins; assay: Immunoblot of inflammatory, survival and apoptotic signaling in anti-CD3/anti-CD28-stimulated T cells; format: cell-based, mouse; conditions: 30 μg/ml lipid, 15 min or 24 h
# Description: CD3^+ T cells were isolated from the lymph nodes of naïve C57BL/6 mice by using CD3^+ T-cell enrichment columns (R&D systems). […] Cells were washed with ice-cold PBS and lysed in RIPA lysis buffer containing 1X Halt protease and phosphatase inhibitor cocktail (Pierce) with a Dounce homogenizer. Immunoblotting was performed with antibodies against phospho-Bim ([…]), phospho-Bad ([…]), phospho-Bcl-2 ([…]), phospho-IKKα/β (serines 180/181), phospho-p65 ([…]), phospho-ERK1/2 […]), and IκBα from Cell Signaling Technology.
# [4] = tested on: EAE in PLP139-151-immunized SJL/J mice; conditions: prophylactic regimen, previously tested by the applicant, cited from earlier work
# [5] = tested on: MBPAc1-11-TCR transgenic splenocytes; assay: MBPAc1-11-specific T-cell proliferation (3H-thymidine incorporation); format: cell-based, mouse; conditions: fatty-acid side-chain analogs, various concentrations
# Description: (§1) Splenocytes were harvested from mice transgenic for the MBPAc1-11-specific T-cell receptor and stimulated with 2 μg/ml of MBPAc1-11 in the presence of 30 μg/ml of lipid. Lymph nodes and spleens were also harvested from naive C57BL/6 mice, and CD3^+ T-cell enrichment columns (R&D systems) were used to isolate CD3^+ T cells. The purified CD3^+ T cells were stimulated with 5 μg/ml of plate-bound anti-CD3 antibodies and anti-CD28 antibodies in the presence of 30 μg/ml of POPS, PGPC, azPC ester, brain sulfatides, or azPC, 0.25 mM palmitic acid, or 100% ethanol (as the vehicle control). For assessment of proliferation, 1 μCi of ^3H-thymidine was added to each well for the final 18-24 hours of culture, and incorporation of radioactivity was measured by using a Betaplate scintillation counter. Cytokine assays were performed on culture supernatants after 24 (IL-12p40) or 48 hours (IFN-γ, IL-6, and TNF) of culture by using the BD OptEIA™ Mouse ELISA kits (BD Biosciences).
# 5×10^6 cells/ml were stimulated in vitro with 2 μg/ml of MBPAc1-11 in the presence of various concentrations of palmitic acid (Sigma), other lipids, or 100% Ethanol (vehicle alone).
# For assessment of proliferation, 1 μCi of ^3H-thymidine was added to each well for the final 18 hours of culture, and incorporation of radioactivity was quantified using a Betaplate scintillation counter.
# [6] = tested on: azPC-mediated inhibition of MBP Ac1-11 specific T cell proliferation; assay: Phospholipase inhibitor effect on azPC-mediated inhibition of T cell proliferation; format: cell-based, mouse; conditions: about 40 min pre-incubation with inhibitor, 2 μg/ml MBPAc1-11, 30 μg/ml azPC, 48 hours
# Description: 5×10^6 cells/ml were pre-incubated in complete RPMI media for about 40 min at 37° C. with 5% CO2, in the presence of the corresponding vehicle (DMSO or 100% ethanol) or a phospholipase inhibitor: OBAA (500 nM, Tocris Bioscience), U 73122 (500 nM, Tocris Bioscience), 525143 (5 μM, EMD, Calbiochem), FKGK 11 (50 μM, Caymen Chemical), YM 26734 (250 μM, Tocris Bioscience), LY 311727 (500 μM, Tocris Bioscience), CAY10590 (200 μM, Caymen Chemical), 525145 (5 μM, EMD, Calbiochem). Afterwards, the splenocytes were plated in triplicate and stimulated in vitro with 2 μg/ml of MBPAc1-11 in the presence of 30 μg/ml azPC for 48 hours. Proliferation response is the ratio of the average triplicate wells of MBP+azPC divided by the average triplicate wells of MBP, or MBP divided by MBP.
# CD3+ T cells [7] = assay: Proliferation of anti-CD3/anti-CD28-stimulated purified T cells; format: cell-based, mouse; conditions: anti-CD3 and anti-CD28, 0.25 mM palmitic acid, 48 h
# Description: Splenocytes were harvested from mice transgenic for the MBPAc1-11-specific T-cell receptor and stimulated with 2 μg/ml of MBPAc1-11 in the presence of 30 μg/ml of lipid. Lymph nodes and spleens were also harvested from naive C57BL/6 mice, and CD3^+ T-cell enrichment columns (R&D systems) were used to isolate CD3^+ T cells. […] Cytokine assays were performed on culture supernatants after 24 (IL-12p40) or 48 hours (IFN-γ, IL-6, and TNF) of culture by using the BD OptEIA™ Mouse ELISA kits (BD Biosciences). Cd1d^−/− T cells: We harvested splenocytes from Cd1d^−/− mice and their wild-type littermates and used CD3^+ T-cell enrichment columns (R&D systems) to isolate T cells. […] Anti-CD3/anti-CD28-stimulated purified T cells: We harvested lymph nodes and spleens from naive C57BL/6 mice and used CD3^+ T-cell enrichment columns (R&D systems) to isolate CD3^+ T cells.
# CD3+ T cells [8] = assay: Cytokine production of anti-CD3/anti-CD28-stimulated purified T cells; format: cell-based, mouse; conditions: anti-CD3 and anti-CD28, 0.25 mM palmitic acid, 48 h
# Description: as §1
# Anti-CD3/anti-CD28-stimulated purified T cells: We harvested lymph nodes and spleens from naive C57BL/6 mice and used CD3^+ T-cell enrichment columns (R&D systems) to isolate CD3^+ T cells. We then stimulated 1×10^6 cells/ml of T cells with 5 μg/ml of plate-bound anti-CD3 antibodies plus anti-CD28 antibodies in the presence of 30 μg/ml of POPS, PGPC, azPC ester, brain sulfatides, or azPC, […], or 100% ethanol (as the vehicle control).
# Cytokine production by cells from the lymph nodes and spleens of PGPC co-immunized mice was measured after 66 hours of stimulation by using the BD OptEIA™ Mouse IFN-γ ELISA kit (BD Biosciences). Cytokine assays for the anti-CD3/anti-CD28 antibody-stimulated T cells and PLP139-151-stimulated splenocytes were performed on culture supernatants after 48 hours of stimulation using the BD OptEIA™ Mouse IL-6, IFN-γ, and TNF alpha ELISA kits (BD Biosciences) and the Mouse IL-17 DuoSet ELISA Development kit (R&D Systems).
# [9] = tested on: CD3+ T cells (gated on CD4+ T cells); assay: T-cell apoptosis, Annexin V and 7AAD staining; format: cell-based, mouse; conditions: 0.25 mM palmitic acid, anti-CD3 and anti-CD28, 48 h
# Description: FIG. 5. […] (C) TUNEL staining of brain and spinal-cord tissue from mice immunized with PLP139-151 peptide (to induce EAE) and treated for 12 h with azPC, POPS, or vehicle on day 15 after immunization. […] (D) Quantification of TUNEL-positive infiltrating cells in brain and spinal cord shown in panel (C). Cells were stained according to standard protocols, run on a FACScan flow cytometer (BD Biosciences), and analysed with CellQuest software (BD Immunocytometry Systems). The antibody conjugate used was FITC anti-CD4, clone GK1.5 (BD Pharmingen). 7AAD staining was performed by using the Annexin V-PE Apoptosis Detection Kit I (BD Pharmingen). Cells were stained according to standard protocols, run on a FACScan flow cytometer (BD Biosciences), and analysed with CellQuest software (BD Immunocytometry Systems) or with FlowJo software version 6.3.2 (Tree Star, Inc.).
compound,measurement,setting,value
Sphingomyelin [reference compound],EAE severity (clinical score),[1],attenuated EAE
same,"EAE severity, established disease","[2]; 100 μg i.v. from disease onset (10 days after immunization), five injections",exacerbated EAE
sulfatide [reference compound],CD3/CD28-induced activation of the NF-κB and ERK pathways,[3],neither inhibited
same,EAE severity,[4],exacerbated EAE
same,EAE severity,[4]; listed as sulfatides,worsened EAE
CCCCCCCC(=O)OC [methyl octanoate],concentration at which T-cell proliferation was suppressed,[5],10 mM
O=C(CCCCc1ccccc1)C(F)(F)C(F)(F)F [FKGK 11],Effect on azPC (azPC-mediated inhibition of MBP-specific T cell proliferation),[6],No effect
CCCCCCCCCCCCCCCC(=O)O [palmitic acid],concentration at which T-cell proliferation was suppressed,[5],0.1 mM
same,T-cell proliferation,CD3+ T cells [7],suppressed T-cell proliferation as effectively as the phospholipids
same,T-cell production of IFN-γ,CD3+ T cells [8],suppressed
same,T-cell production of IL-6,CD3+ T cells [8],suppressed
same,T-cell production of IL-17,CD3+ T cells [8],suppressed
same,T-cell production of TNF,CD3+ T cells [8],suppressed
same,T-cell apoptosis,[9],induced T-cell apoptosis
same,EAE course after treatment was halted,"[2]; 100 μg i.v. every other day, then stopped",disease relapsed
same,"EAE severity, established disease","[2]; 100 μg i.v. once paralysis developed, every other day, ten injections",attenuated EAE
CCCCCCCCCCCC(=O)c1c(O)c(C(=O)CCCCCCCCCCC)c(O)c(C2CC(c3ccc(O)cc3)Oc3cc(O)ccc32)c1O (stereo not drawn) [YM 26734],Effect on azPC (azPC-mediated inhibition of MBP-specific T cell proliferation),[6],Inhibited
CCc1c(CC(N)=O)c2cc(OCCCP(=O)(O)O)ccc2n1Cc1ccccc1 [LY 311727],Effect on azPC (azPC-mediated inhibition of MBP-specific T cell proliferation),[6],Inhibited
CCCC[C@H](CCC(=O)O)NC(=O)CCCCCCc1ccccc1 [CAY10950],Effect on azPC (azPC-mediated inhibition of MBP-specific T cell proliferation),[6],Inhibited
CCCCCCCC(=O)O [octanoic acid],concentration at which T-cell proliferation was suppressed,[5],5 mM
COc1ccc2c(c1)CC[C@@H]1[C@@H]2CC[C@]2(C)[C@@H](NCCCCCCN3C(=O)C=CC3=O)CC[C@@H]12 [U 73122],Effect on azPC (azPC-mediated inhibition of MBP-specific T cell proliferation),[6],No effect
